Assay results from patent US10851112B2, “Anti-HCMV virus compound” (MEDSHINE DISCOVERY INC., priority 2016, dated 2020).
pEC50: −log10 of the molar value.

system: US3-6-EGFP-HCMV-AD169 viruses; assay: Fluorescence decay assay against human cytomegalovirus; type: cell-based, human cytomegalovirus (HCMV); details: Human betaherpesvirus 5, AD169, MRC5, 240 h
Experimental: Fluorescence Decay Assay Against Human Cytomegalovirus
The antiviral activity of the compound against human cytomegalovirus (HCMV) was evaluated by determining the half maximal effective concentration (EC50) of the compound. The HCMV used in this assay was inserted with enhanced green fluorescent protein (EGFP) by gene recombination, so the viral replication in cells could be reflected by the expression level of GFP. The inhibitory activity of the compound on HCMV GFP expression was evaluated by determining the fluorescence intensity in the wells of different concentrations of the compound using a high content cell analysis platform Acumen eX3.
Fluorescence Decay Assay Against HCMV
MRC5 cells were inoculated into a black 96-well cell culture plate at a density of 20,000 cells per well. The plate was incubated overnight in a 37° C., 5% CO2 incubator. US3-6-EGFP-HCMV-AD169 viruses were added to the cell culture well at a certain MOI (0.003-0.1) and the plate was incubated for 3 hours in a 37° C., 5% CO2 incubator. After adsorption of viruses, the medium containing viruses was aspirated and 200 μL of cell culture medium containing different concentrations of the compound (4-fold dilution, 6 test concentrations) was added. The final concentration of DMSO in the medium was 1%. Virus control wells (with DMSO added, but no compound was added) and inhibition control wells (with a high concentration of control compound added) were set. The cell plate was incubated for 10 days in a 37° C., 5% CO2 incubator and the liquid was renewed on the 4th day and 7th day. After 10 days of culture, the fluorescence intensity was determined using a high content cell analysis platform Acumen eX3 (TTP LabTech). The original data was used for calculating the antiviral activity of the compound.
The inhibition % was imported into GraphPad Prism software for data processing to give a corresponding dose-response curve for the compound and the EC50 of the test compound was obtained.

SMILES | pEC50
COc1cc(N2[C@H](C)CN(C3=Nc4cscc4[C@@H](CC(=O)O)N3c3cc(C(F)(F)F)ccc3OC)C[C@@H]2C)ccn1 (single isomer, unassigned) [WX-199] | < 8.00
COc1cc(N2CCN(C3=Nc4c(csc4F)[C@H](CC(=O)O)N3c3cc(C(F)(F)F)ccc3OC)CC2)ccn1 (single isomer, unassigned) [WX-097] | 9.00
COc1ccc(C(F)(F)F)cc1N1C(N2CCN(c3ccc(F)cc3)CC2)=Nc2c(csc2F)[C@@H]1CC(=O)O (single isomer, unassigned) [WX-112] | 9.00
COc1cccc(N2CCN(C3=Nc4c(csc4F)[C@@H](CC(=O)O)N3c3cc(C(F)(F)F)ccc3OC)CC2)c1 (single isomer, unassigned) [WX-075] | 6.53
COc1cccc(N2CCN(C3=Nc4cscc4[C@H](CC(=O)O)N3c3cc(C(F)(F)F)ccc3OC)C[C@H]2C)c1 (single isomer, unassigned) [WX-204] | 9.76
COc1cccc(N2CCN(C3=Nc4c(csc4F)[C@H](CC(=O)O)N3c3cc(C(F)(F)F)ccc3OC)CC2)c1 (single isomer, unassigned) [WX-076] | 9.00
CC[C@@H]1CN(C2=Nc3ccsc3[C@H](CC(=O)O)N2c2cc(C(F)(F)F)ccc2OC)CCN1c1cccc(OC)c1 (single isomer, unassigned) [WX-170] | 9.58
COc1ccnc(N2CCN(C3=Nc4c(csc4F)[C@@H](CC(=O)O)N3c3cc(C(F)(F)F)ccc3OC)C[C@H]2C)c1 (single isomer, unassigned) [WX-146] | 6.45
COc1cc(N2CCN(C3=Nc4cc(C)sc4[C@H](CC(=O)O)N3c3cc(C(F)(F)F)ccc3OC)C[C@H]2C)ccn1 (single isomer, unassigned) [WX-173] | 9.07
COc1cccc(N2CCN(C3=Nc4ccsc4[C@H](CC(=O)O)N3c3cc(C(F)(F)F)ccc3OC)C[C@H]2CF)c1 (single isomer, unassigned) [WX-172] | 10.00
COc1cc(N2CCN(C3=Nc4ccsc4[C@H](CC(=O)O)N3c3cc(C(F)(F)F)ccc3OC)C[C@H]2C)ccc1F (single isomer, unassigned) [WX-201] | 9.28
COc1ccnc(N2CCN(C3=Nc4c(csc4F)[C@H](CC(=O)O)N3c3cc(C(F)(F)F)ccc3OC)C[C@H]2C)n1 (single isomer, unassigned) [WX-129] | 7.85
COc1cccc(N2CCN(C3=Nc4ccsc4[C@@H](CC(=O)O)N3c3cc(C(F)(F)F)ccc3OC)C[C@H]2CF)c1 (single isomer, unassigned) [WX-171] | < 8.00
CC[C@@H]1CN(C2=Nc3ccsc3[C@@H](CC(=O)O)N2c2cc(C(F)(F)F)ccc2OC)CCN1c1cccc(OC)c1 (single isomer, unassigned) [WX-169] | < 6.27
COc1cc(N2CCN(C3=Nc4ccsc4[C@@H](CC(=O)O)N3c3cc(C(F)(F)F)ccc3OC)C[C@H]2C)ccn1 (single isomer, unassigned) [WX-142] | 7.25
COc1cccc(N2CCN(C3=Nc4c(csc4F)[C@@H](CC(=O)O)N3c3cc(C(F)(F)F)ccc3OC)C[C@H]2C)c1 (single isomer, unassigned) [WX-131] | 7.26
COc1cccc(N2CCN(C3=Nc4cc(Cl)sc4[C@H](CC(=O)O)N3c3cc(C(F)(F)F)ccc3OC)CC2)c1 (single isomer, unassigned) [WX-107] | 8.40
COc1cccc(N2CCN(C3=Nc4cc(Cl)sc4[C@@H](CC(=O)O)N3c3cc(C(F)(F)F)ccc3OC)CC2)c1 (single isomer, unassigned) [WX-106] | < 6.00
COc1cncc(N2CCN(C3=Nc4c(csc4F)[C@H](CC(=O)O)N3c3cc(C(F)(F)F)ccc3OC)C[C@H]2C)c1 (single isomer, unassigned) [WX-133] | 7.77
COc1cc(N2CCN(C3=Nc4ccsc4[C@@H](CC(=O)O)N3c3cc(C(F)(F)F)ccc3OC)C[C@H]2C)ccc1F (single isomer, unassigned) [WX-200] | < 8.00
COc1cncc(N2CCN(C3=Nc4ccsc4[C@H](CC(=O)O)N3c3cc(C(F)(F)F)ccc3OC)C[C@H]2C)c1 (single isomer, unassigned) [WX-137] | 7.51
COc1ccc(C(F)(F)F)cc1N1C(N2CCC(F)(c3ccc(F)cc3)CC2)=Nc2ccsc2[C@H]1CC(=O)O (single isomer, unassigned) [WX-089] | < 6.00

SMILES | pEC50
COc1cc(N2[C@H](C)CN(C3=Nc4ccsc4[C@@H](CC(=O)O)N3c3cc(C(F)(F)F)ccc3OC)C[C@H]2C)ccn1 (single isomer, unassigned) [WX-197] | < 8.00
COc1cc(N2[C@H](C)CN(C3=Nc4ccsc4[C@H](CC(=O)O)N3c3cc(C(F)(F)F)ccc3OC)C[C@H]2C)ccn1 (single isomer, unassigned) [WX-196] | 8.72
COc1cc(N2[C@H](C)CN(C3=Nc4ccsc4[C@@H](CC(=O)O)N3c3cc(C(F)(F)F)ccc3OC)C[C@@H]2C)ccn1 (single isomer, unassigned) [WX-160] | 7.35
COc1cc(N2CCN(C3=Nc4cc(C)sc4[C@@H](CC(=O)O)N3c3cc(C(F)(F)F)ccc3OC)C[C@H]2C)ccn1 (single isomer, unassigned) [WX-174] | < 8.00
COc1cc(N2CCN(C3=Nc4c(csc4F)[C@@H](CC(=O)O)N3c3cc(C(F)(F)F)ccc3OC)C[C@H]2C)ncn1 (single isomer, unassigned) [WX-150] | 7.70
COc1ccnc(N2CCN(C3=Nc4c(csc4F)[C@@H](CC(=O)O)N3c3cc(C(F)(F)F)ccc3OC)C[C@H]2C)n1 (single isomer, unassigned) [WX-130] | < 7.00
COc1cccc(N2CCN(C3=Nc4cscc4[C@@H](CC(=O)O)N3c3cc(C(F)(F)F)ccc3OC)C[C@H]2C)c1 (single isomer, unassigned) [WX-203] | < 8.00
COc1cc(N2CCN(C3=Nc4ccsc4[C@@H](CC(=O)O)N3c3cc(C(F)(F)F)ccc3OC)C[C@H]2C)ncn1 (single isomer, unassigned) [WX-144] | 6.58
COc1cncc(N2CCN(C3=Nc4c(csc4F)[C@@H](CC(=O)O)N3c3cc(C(F)(F)F)ccc3OC)C[C@H]2C)c1 (single isomer, unassigned) [WX-134] | < 6.00
COc1cc(N2CCN(C3=Nc4ccsc4[C@@H](CC(=O)O)N3c3cc(C(F)(F)F)ccc3OC)CC2)ccn1 (single isomer, unassigned) [WX-108] | 6.47
COc1cc(N2CCN(C3=Nc4c(csc4F)[C@@H](CC(=O)O)N3c3cc(C(F)(F)F)ccc3OC)C[C@H]2C)ccn1 (single isomer, unassigned) [WX-148] | 7.92
COc1ccnc(N2CCN(C3=Nc4ccsc4[C@@H](CC(=O)O)N3c3cc(C(F)(F)F)ccc3OC)C[C@H]2C)c1 (single isomer, unassigned) [WX-140] | 6.84
COc1cncc(N2CCN(C3=Nc4ccsc4[C@@H](CC(=O)O)N3c3cc(C(F)(F)F)ccc3OC)C[C@H]2C)c1 (single isomer, unassigned) [WX-138] | < 6.00
COc1cccc(N2CCN(C3=Nc4ccsc4[C@@H](CC(=O)O)N3c3cc(C(F)(F)F)ccc3OC)C[C@H]2C)c1 (single isomer, unassigned) [WX-135] | 6.03
COc1cccc(N2CCN(C3=Nc4ccsc4[C@@H](CC(=O)O)N3c3cc(C(F)(F)F)ccc3OC)CC2)c1 (single isomer, unassigned) [WX-087] | < 6.00
COc1cc(N2CCN(C3=Nc4c(csc4F)[C@@H](CC(=O)O)N3c3cc(C(F)(F)F)ccc3OC)CC2)ccn1 (single isomer, unassigned) [WX-098] | 7.51
COc1ccc(C(F)(F)F)cc1N1C(N2CCC(F)(c3ccc(F)cc3)CC2)=Nc2c(csc2F)[C@@H]1CC(=O)O (single isomer, unassigned) [WX-099] | 7.62
COc1ccc(C(F)(F)F)cc1N1C(N2CCC(F)(c3ccc(F)cc3)CC2)=Nc2ccsc2[C@@H]1CC(=O)O (single isomer, unassigned) [WX-090] | 7.10
COc1cc(N2[C@H](C)CN(C3=Nc4cscc4[C@H](CC(=O)O)N3c3cc(C(F)(F)F)ccc3OC)C[C@@H]2C)ccn1 (single isomer, unassigned) [WX-198] | 9.15
COc1ccc(C(F)(F)F)cc1N1C(N2CCN(c3ccc(F)cc3)CC2)=Nc2c(csc2F)[C@H]1CC(=O)O (single isomer, unassigned) [WX-113] | 6.97
COc1ccc(C(F)(F)F)cc1N1C(N2CCC(F)(c3ccc(F)cc3)CC2)=Nc2c(csc2F)[C@H]1CC(=O)O (single isomer, unassigned) [WX-100] | 7.14
